The record followed here is patent US20050209216A1, “Phenyl-and pyridyl-diazaheterocycles having a tnf-modulating activity” (priority 2002, published 2005).

Structures can show the parent of a compound that is named as a salt.

A word on the melting point: it is the temperature, or range, at which the solid turns liquid. `Clc1cccc(N2CC3CCC(C2)N3CCc2ccc3ccncc3c2)n1`: the melting point lay within 141 to 142 °C.

The compound `FC(F)(F)c1cccc(N2C3CCC2CN(CCc2ccc4ccncc4c2)C3)c1` (as salt: hydrochloride) (hydrate or solvate) had a melting point of 151 to 153 °C.

For the compound `FC(F)(F)c1cccc(N2CC3CCC(C2)N3CCc2ccc3ccncc3c2)n1` (as salt: hydrochloride) (hydrate or solvate), the melting point was in the range of 258 to 260 °C.

On to `FC(F)(F)c1cccc(N2C3CCC2CN(CCc2ccc4ccncc4c2)C3)n1` (as salt: hydrochloride) (hydrate or solvate), for which the melting point was 158 to 160 °C.

With `Clc1cccc(N2CCN(CCc3ccc4ccncc4c3)CC2)n1` (as salt: hydrochloride) (hydrate or solvate) [Example 3], the melting point was 108 to 110 °C.

`FC(F)(F)c1cccc(N2CCN(CCc3ccc4cccnc4c3)CC2)n1` (as salt: hydrochloride) [Example 11] registered a melting point of 228 to 230 °C.

Take `FC(F)(F)c1ccc(N2CCN(CCc3ccc4cccnc4c3)CC2)nc1` (as salt: hydrochloride) [Example 12]: the melting point lay in the range of 108 to 110 °C.

The compound `FC(F)(F)c1cccnc1N1CCN(CCc2ccc3cccnc3c2)CC1` (as salt: hydrochloride) [Example 13] gave a melting point of 163 to 164 °C.

As for `FC(F)(F)c1cccc(N2CC3CCC(C2)N3CCc2ccc3ccncc3c2)c1` (as salt: oxalate), the melting point lay within 97 to 99 °C.

`FC(F)(F)c1cccc(N2CCCN(CCc3ccc4ccncc4c3)CC2)c1` (as salt: oxalate) [Example 4] had a melting point of 135 to 137 °C.

Turning to `Clc1cccc(N2CCN(CCc3ccc4cccnc4c3)CC2)n1` (as salt: oxalate) [Example 10], the melting point was in the range of 170 to 172 °C.
